Values of other authors as cited in patent publication US9119854B2, “Methods for treating cancer using combination therapy” (CELGENE CORPORATION, priority 2013, dated 2015).

Experiments:
BTK = BTK (Homo sapiens, UniProt Q06187); settings: enzymatic and cellular assays; the '610 publication
CRBN = CRBN (Homo sapiens, UniProt Q96SW2); settings: in vitro; Ito et al., Science 2010
CRBN, sequence (Q96SW2 whole entry): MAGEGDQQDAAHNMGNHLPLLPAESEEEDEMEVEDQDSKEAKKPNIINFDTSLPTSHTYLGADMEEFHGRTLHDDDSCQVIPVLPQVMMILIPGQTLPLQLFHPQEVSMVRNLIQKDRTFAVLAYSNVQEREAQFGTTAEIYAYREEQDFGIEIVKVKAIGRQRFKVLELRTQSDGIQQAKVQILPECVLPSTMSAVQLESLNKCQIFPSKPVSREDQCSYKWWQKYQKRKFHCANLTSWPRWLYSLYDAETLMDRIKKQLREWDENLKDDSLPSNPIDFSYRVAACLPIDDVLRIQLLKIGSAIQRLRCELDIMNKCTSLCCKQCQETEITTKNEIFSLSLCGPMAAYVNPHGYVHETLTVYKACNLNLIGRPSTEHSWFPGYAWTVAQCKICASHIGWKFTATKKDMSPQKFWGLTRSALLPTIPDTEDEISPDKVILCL
CRBN, sequence (Q16531 whole entry partner): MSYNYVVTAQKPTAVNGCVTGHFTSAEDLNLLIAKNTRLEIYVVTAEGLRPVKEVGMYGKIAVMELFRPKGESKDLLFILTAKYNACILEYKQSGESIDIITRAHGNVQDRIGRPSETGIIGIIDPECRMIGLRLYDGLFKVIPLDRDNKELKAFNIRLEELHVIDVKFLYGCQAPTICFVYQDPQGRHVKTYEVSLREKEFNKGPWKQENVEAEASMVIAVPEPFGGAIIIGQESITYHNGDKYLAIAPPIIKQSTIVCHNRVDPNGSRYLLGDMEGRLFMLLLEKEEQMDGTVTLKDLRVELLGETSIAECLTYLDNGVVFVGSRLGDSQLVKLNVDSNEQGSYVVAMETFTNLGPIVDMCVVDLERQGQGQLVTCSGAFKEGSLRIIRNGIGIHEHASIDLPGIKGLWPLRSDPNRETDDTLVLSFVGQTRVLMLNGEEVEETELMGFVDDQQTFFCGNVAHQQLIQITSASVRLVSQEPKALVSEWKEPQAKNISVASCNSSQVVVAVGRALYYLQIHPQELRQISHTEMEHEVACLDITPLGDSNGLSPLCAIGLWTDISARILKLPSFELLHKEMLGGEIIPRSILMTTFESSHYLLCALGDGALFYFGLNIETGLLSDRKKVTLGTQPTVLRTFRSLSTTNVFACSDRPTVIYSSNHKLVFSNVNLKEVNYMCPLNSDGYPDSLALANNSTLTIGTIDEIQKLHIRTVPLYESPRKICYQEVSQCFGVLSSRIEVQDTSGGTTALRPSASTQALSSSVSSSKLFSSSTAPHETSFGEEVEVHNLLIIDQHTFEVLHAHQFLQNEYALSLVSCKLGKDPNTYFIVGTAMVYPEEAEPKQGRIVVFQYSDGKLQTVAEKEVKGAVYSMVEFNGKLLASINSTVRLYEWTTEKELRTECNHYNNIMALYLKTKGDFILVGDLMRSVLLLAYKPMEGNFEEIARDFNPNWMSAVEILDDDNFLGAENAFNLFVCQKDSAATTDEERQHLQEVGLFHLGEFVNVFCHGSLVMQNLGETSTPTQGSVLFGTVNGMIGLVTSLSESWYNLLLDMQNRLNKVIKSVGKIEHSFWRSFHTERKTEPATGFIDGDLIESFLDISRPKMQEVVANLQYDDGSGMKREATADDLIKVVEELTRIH
CRBN, sequence (Q13619 whole entry partner): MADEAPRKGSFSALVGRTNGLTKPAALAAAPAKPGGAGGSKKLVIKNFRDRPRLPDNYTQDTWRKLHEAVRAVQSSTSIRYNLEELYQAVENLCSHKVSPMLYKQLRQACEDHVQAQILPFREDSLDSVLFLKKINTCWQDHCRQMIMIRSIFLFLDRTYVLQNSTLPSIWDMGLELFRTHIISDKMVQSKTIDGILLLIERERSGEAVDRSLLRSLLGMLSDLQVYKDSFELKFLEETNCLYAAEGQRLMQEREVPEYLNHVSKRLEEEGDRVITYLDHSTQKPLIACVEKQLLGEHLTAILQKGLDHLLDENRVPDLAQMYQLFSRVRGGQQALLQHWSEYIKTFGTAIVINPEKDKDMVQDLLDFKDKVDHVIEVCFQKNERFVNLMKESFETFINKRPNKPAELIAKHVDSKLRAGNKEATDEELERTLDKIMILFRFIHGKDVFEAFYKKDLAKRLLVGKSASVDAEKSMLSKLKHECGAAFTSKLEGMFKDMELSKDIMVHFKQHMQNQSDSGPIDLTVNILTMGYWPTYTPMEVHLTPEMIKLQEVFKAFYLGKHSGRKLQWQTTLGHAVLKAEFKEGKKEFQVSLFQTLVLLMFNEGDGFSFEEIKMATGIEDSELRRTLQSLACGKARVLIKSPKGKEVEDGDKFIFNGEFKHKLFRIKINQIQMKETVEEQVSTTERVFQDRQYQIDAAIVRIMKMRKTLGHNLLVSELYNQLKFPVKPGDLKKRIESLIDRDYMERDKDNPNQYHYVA
CRBN, sequence (P62877 whole entry partner): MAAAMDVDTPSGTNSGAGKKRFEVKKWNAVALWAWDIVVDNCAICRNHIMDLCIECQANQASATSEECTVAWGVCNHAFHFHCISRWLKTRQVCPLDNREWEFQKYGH

BTK, sequence (Q06187 whole entry, species assumed): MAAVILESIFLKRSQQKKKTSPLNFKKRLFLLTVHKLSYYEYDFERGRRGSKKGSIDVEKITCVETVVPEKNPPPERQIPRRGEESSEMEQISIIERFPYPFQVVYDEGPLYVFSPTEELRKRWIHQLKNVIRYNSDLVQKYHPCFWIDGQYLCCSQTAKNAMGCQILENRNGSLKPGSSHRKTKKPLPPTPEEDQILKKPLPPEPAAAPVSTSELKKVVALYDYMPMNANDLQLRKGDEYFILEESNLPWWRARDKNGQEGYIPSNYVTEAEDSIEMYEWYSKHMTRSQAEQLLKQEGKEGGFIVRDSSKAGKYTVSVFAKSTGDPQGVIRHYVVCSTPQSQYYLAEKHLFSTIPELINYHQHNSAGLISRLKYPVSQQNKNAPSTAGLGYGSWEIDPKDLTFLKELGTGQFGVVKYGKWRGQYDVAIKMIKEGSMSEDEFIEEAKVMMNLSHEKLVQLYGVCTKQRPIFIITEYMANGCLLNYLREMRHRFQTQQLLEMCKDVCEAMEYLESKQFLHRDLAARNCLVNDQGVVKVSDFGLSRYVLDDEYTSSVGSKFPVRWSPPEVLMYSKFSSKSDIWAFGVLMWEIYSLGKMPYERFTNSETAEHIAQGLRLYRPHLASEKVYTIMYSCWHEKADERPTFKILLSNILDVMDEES

| Compound | inhibition of BTK (BTK) | B-cell proliferation and activation (B-cell) | auto-ubiquitination of CRBN (CRBN) |
| --- | --- | --- | --- |
| C=CC(=O)Nc1cccc(Nc2nc(Nc3ccc(OCCOC)cc3)ncc2F)c1 [Compound AA, N-(3-(5-fluoro-2-(4-(2-methoxyethoxy)phenylamino)pyrimidin-4-ylamino)phenyl)acrylamide] | covalent, irreversible inhibition | found to inhibit |  |
| O=C1CCC(N2C(=O)c3ccccc3C2=O)C(=O)N1 (stereo not drawn) [thalidomide] |  |  | able to inhibit |
